≈ marks a conversion by molar mass, not a printed value. Where two headings read alike, the source gives them in different places.
Key:
St. aureus [1] = assay: E-test (Epsilometer-test), in vitro antibacterial effectiveness; format: cell-based; conditions: 27 ocular isolates of St. aureus
From the text: (§1) In order to assay the effectiveness of gemifloxacin against the most representative pathogenic strains in ophthalmic infections, its activity was verified in vitro, in terms of MIC50 and MIC90 with the E-test method described by V. Lorian in "Antibiotics in laboratory medicine" (IV ed. 1996, 23-28) and compared to moxifloxacin, ciprofloxacin, levofloxacin and ofloxacin against 85 ocular bacterial isolates subdivided as follows: • 27 St. aureus, 29 S. epidermidis, 16 Coagulase Negative Staphylococci (CNS), 8 Ps. aeruginosa and 5 Serratia marcescens. The following ATCC bacterial strains were also included: Staphylococcus aureus 25923, Staphylococcus aureus 29213, Staphylococcus aureus 43300, S. epidermidis 35984, Pseudomonas aeruginosa 27853 and Pseudomonas aeruginosa 9027.
(§2) The staphylococci also included methicillin resistant strains (MRSA and MRSE).

St. epidermidis = assay: as above; format: cell-based; conditions: Staphylococcus epidermidis; 29 ocular isolates of St. epidermidis
From the text: as §1, §2

St. coagulase negative = assay: as above; format: cell-based, Coagulase Negative Staphylococci (CNS); conditions: 16 ocular isolates
From the text: as §1, §2

Ps. aeruginosa = assay: as above; format: cell-based; conditions: Pseudomonas aeruginosa; 8 ocular isolates of Ps. aeruginosa
From the text: (§3) In order to assay the effectiveness of gemifloxacin against the most representative pathogenic strains in ophthalmic infections, its activity was verified in vitro, in terms of MIC50 and MIC90 with the E-test method described by V. […] The following ATCC bacterial strains were also included: Staphylococcus aureus 25923, Staphylococcus aureus 29213, Staphylococcus aureus 43300, S. epidermidis 35984, Pseudomonas aeruginosa 27853 and Pseudomonas aeruginosa 9027.

Serratia marcescens = assay: as above; format: cell-based; conditions: 5 ocular isolates of Serratia marcescens
From the text: as §3

[2] = In vivo pharmacokinetic test: ocular tissue distribution after single ophthalmic administration; parameters: species or system pigmented rabbits; conditions: rabbit, topical, 30 µl of 0.3% solution per eye
Procedure: The penetration capacity of gemifloxacin was determined in the cornea, conjunctiva, aqueous humour and iris-ciliary body after single ophthalmic administration (30 µl) of the solution at 0.3% in both eyes of pigmented rabbits. The tissues were collected at the following times: 15 minutes, 30 minutes, 1, 2, 4, 8, 12, 24 and 48 hours. Quantitative analysis of the samples was carried out by a LC/MS/MS method after suitable extraction of the active principle from the tissue and expressed as µg/g or µg/ml of tissue.

[3] = test system: ocular St. aureus isolate (7786); assay: In vivo effectiveness: bacterial load (CFU/g) in cornea, bacterial keratitis model; parameters: species or system New Zealand albino rabbits
Procedure: (§4) The effectiveness and accumulation of gemifloxacin in the cornea and aqueous humour were determined in vivo after administration of the 0.3% gemifloxacin compositions (emulsion and aqueous solution) and compared to 0.3% norfloxacin and ofloxacin in aqueous solution, in New Zealand albino rabbits having been induced with bacterial keratitis (Survey of Ophthalmology, vol. 50, suppl. Nov. 2005, p.S32-S48) by intrastromal injection of an inoculum of an ocular St. aureus isolate (7786).
(§5) Male New Zealand albino rabbits were used (Harlan Italia) into which the keratitis had been induced - following anaesthesia with ketamine (37.5 mg/kg) and xylazine (10 mg/kg) by intramuscular means and novesine by topical means (2 drops per eye) - by intrasomal injection of a suspension of the ocular St. aureus isolate 7786 in PBS (Phosphate Buffered Solution). The injection was carried out using an insulin syringe with a 30-gauge needle in each cornea of each rabbit.
(§6) In the first experiment the following treatments were compared: 0.15% aqueous gemifloxacin solution, 0.3% aqueous gemifloxacin solution, 0.3% aqueous norfloxacin solution and physiological solution (0.9% NaCl) as control. The treatment was undertaken every 2 hours over 3 consecutive treatment days (5 administrations/day). The tissues were collected an hour after the last treatment, with the end point being after one day and after three days of treatment.
(§7) In the second experiment the following treatment groups were compared: 0.3% aqueous gemifloxacin solution, 0.3% gemifloxacin emulsion, 0.3% aqueous ofloxacin solution and physiological solution (0.9% NaCl) as control. The treatment was carried out every hour for only one day of treatment (7 administrations/day). The tissues were collected from the animals in each group, killed one hour after the last treatment.
All the compositions used in the two experiments described were administered at 50 µl per treatment.
The bacterial load of each sample was determined by counting CFUs (Colony Forming Units) on a filter and plate, to be reported as CFU/g of tissue.

[4] = parameters: species or system New Zealand albino rabbits; conditions: male, New Zealand albino, rabbit, in vivo
Procedure: as §4, §5, §6, §7
All the compositions used in the two experiments described were administered at 50 µl per treatment. […]
The fluorescence value obtained was interpolated using the relative standard curve and expressed as nanograms/ml or nanograms/g of tissue.

St. aureus [5] = conditions: literature, cited from earlier work
[6] = Staphylococcus aureus, read-out: MIC90
[7] = conjunctiva, single ophthalmic administration (30 µl) of 0.3% solution
[8] = cornea, single ophthalmic administration (30 µl) of 0.3% solution
[9] = first experiment, 0.3% aqueous solution, every 2 hours, 5 administrations/day, after one and three days, compared with control (gemifloxacin also vs norfloxacin)

MIC50 (St. aureus [1]; Staphylococcus aureus) [µg/mL] | MIC90 (St. aureus [1]; [6]) [µg/mL] | MIC50 (St. epidermidis) [µg/mL] | MIC90 (St. epidermidis) [µg/mL] | MIC50 (St. coagulase negative) [µg/mL] | MIC90 (St. coagulase negative) [µg/mL] | MIC50 (Ps. aeruginosa) [µg/mL] | MIC90 (Ps. aeruginosa) [µg/mL] | MIC50 (Serratia marcescens) [µg/mL] | MIC90 (Serratia marcescens) [µg/mL] | Structure (SMILES) | reduction in bacterial load in the cornea [3, 9] | concentration in the cornea relative to MIC for St. aureus [4] | further results
0.032 (≈ 0.0822 µM) | 0.064 (≈ 0.164 µM) | 0.023 (≈ 0.0591 µM) | 0.094 (≈ 0.241 µM) | 0.016 (≈ 0.0411 µM) | 0.047 (≈ 0.121 µM) | 0.125 (≈ 0.321 µM) | 0.25 (≈ 0.642 µM) | 0.125 (≈ 0.321 µM) | 0.19 (≈ 0.488 µM) | CO/N=C1\CN(c2nc3c(cc2F)c(=O)c(C(=O)O)cn3C2CC2)CC1CN (racemic) [Gemifloxacin, (R,S)-7-(3-aminomethyl-4-methoxyiminopyrrolidin-1yl)-1-cyclopropyl-6-fluoro-4-oxo-1,4-dihydro-1,8-naphthyridin-3-carboxylic acid] | statistically significant reduction in bacterial load |  | Cmax ([2]; aqueous humour, single administration of 0.3% aqueous solution, healthy eyes): 26 ng/mL; Tmax ([2]; aqueous humour, single ophthalmic administration (30 µl) of 0.3% solution): 2 h; Cmax ([2]; conjunctiva, single administration of 0.3% aqueous solution, healthy eyes): 980 ng/mL; Cmax [2, 7]: 980 ng/g; Tmax [2, 7]: 0.25 h; Cmax ([2]; cornea, single administration of 0.3% aqueous solution, healthy eyes): 2600 ng/mL; Cmax [2, 8]: 2600 ng/g; Tmax [2, 8]: 0.25 h; Cmax ([2]; iris-ciliary body, single administration of 0.3% aqueous solution, healthy eyes): 460 ng/g; Tmax ([2]; iris-ciliary body, single ophthalmic administration (30 µl) of 0.3% solution): 2 h; reduction in bacterial load in the cornea ([3]; first experiment, 0.15% aqueous solution, every 2 hours, 5 administrations/day, after one and three days, compared to control and 0.3% norfloxacin): statistically significant reduction in bacterial load; reduction in bacterial load in the cornea ([3]; second experiment, 0.3% aqueous solution, every hour, 7 administrations, one day, compared to control): statistically significantly reduce; reduction in bacterial load in the cornea ([3]; second experiment, 0.3% emulsion, every hour, 7 administrations, one day, compared to control): statistically significantly reduce; reduction in bacterial load relative to the reduction effected by ofloxacin ([3]; second experiment, gemifloxacin-containing compositions (0.3% aqueous solution and 0.3% emulsion) vs 0.3% ofloxacin solution): statistically significant
0.5 (≈ 1.51 µM) | > 32 | 0.19 (≈ 0.573 µM) | 0.5 (≈ 1.51 µM) | 0.25 (≈ 0.754 µM) | 0.25 (≈ 0.754 µM) | 0.125 (≈ 0.377 µM) | 0.25 (≈ 0.754 µM) | 0.064 (≈ 0.193 µM) | 0.125 (≈ 0.377 µM) | O=C(O)c1cn(C2CC2)c2cc(N3CCNCC3)c(F)cc2c1=O [Ciprofloxacin] |  |  | 
0.25 (≈ 0.692 µM) | 0.75 (≈ 2.08 µM) | 0.19 (≈ 0.526 µM) | 0.38 (≈ 1.05 µM) | 0.25 (≈ 0.692 µM) | 0.25 (≈ 0.692 µM) | 0.5 (≈ 1.38 µM) | 0.75 (≈ 2.08 µM) | 0.125 (≈ 0.346 µM) | 0.25 (≈ 0.692 µM) | C[C@H]1COc2c(N3CCN(C)CC3)c(F)cc3c(=O)c(C(=O)O)cn1c23 [Levofloxacin] |  |  | 
0.064 (≈ 0.159 µM) | 0.38 (≈ 0.947 µM) | 0.047 (≈ 0.117 µM) | 0.094 (≈ 0.234 µM) | 0.047 (≈ 0.117 µM) | 0.094 (≈ 0.234 µM) | 0.5 (≈ 1.25 µM) | 1 (≈ 2.49 µM) | 0.19 (≈ 0.473 µM) | 0.38 (≈ 0.947 µM) | COc1c(N2C[C@@H]3CCCN[C@@H]3C2)c(F)cc2c(=O)c(C(=O)O)cn(C3CC3)c12 [Moxifloxacin] |  |  | 
0.5 (≈ 1.38 µM) | 1.5 (≈ 4.15 µM) | 0.25 (≈ 0.692 µM) | 16 (≈ 44.3 µM) | 0.25 (≈ 0.692 µM) | 0.5 (≈ 1.38 µM) | 0.5 (≈ 1.38 µM) | 1 (≈ 2.77 µM) | 0.19 (≈ 0.526 µM) | 0.38 (≈ 1.05 µM) | CC1COc2c(N3CCN(C)CC3)c(F)cc3c(=O)c(C(=O)O)cn1c23 (stereo not shown) [Ofloxacin] |  | near to its MIC50 | MIC90 (St. aureus [1]): 1.5 µg/mL (≈ 4.15 µM); MIC90 (St. aureus [1]; listed as ofloxacin): 1.15 µg/mL (≈ 3.18 µM); concentration in the aqueous humour [4]: about 1.5 µg/ml
 |  |  |  |  |  |  |  |  |  | CCn1cc(C(=O)O)c(=O)c2cc(F)c(N3CCNCC3)cc21 [norfloxacin] | does not lead to a reduction in bacterial load | lower corneal concentrations than its MIC50-MIC90 range | MIC50 (St. aureus [5]; lower end of MIC50-MIC90 range for St. aureus): 0.5 µg/mL (≈ 1.57 µM); MIC90 (St. aureus [5]; upper end of MIC50-MIC90 range for St. aureus): 2 µg/mL (≈ 6.26 µM)

Source: EP2143422A1, “Ophthalmic compositions containing gemifloxacin for the treatment of ocular infections” (S.I.F.I - SOCIETÀ INDUSTRIA FARMACEUTICA ITALIANA - S.P.A., priority 2008, dated 2010)
